Laboratory results as given in PMC8167858, “Crystal structure of a novel homodimeric L‐ribulose 3‐epimerase from Methylomonus sp” (FEBS Open Bio, 2021).

Assays:
MetLRE (MetLRE_his) [1] = biological target: T1, MetLRE (MetLRE_his) (Methylomonas sp. DH-1, UniProt A0A172U6X0); experiment: X-ray crystal structure, […] Å; assay type: binding
T1 construct: gene AYM39_05640
T1 sequence (A0A172U6X0 1-286): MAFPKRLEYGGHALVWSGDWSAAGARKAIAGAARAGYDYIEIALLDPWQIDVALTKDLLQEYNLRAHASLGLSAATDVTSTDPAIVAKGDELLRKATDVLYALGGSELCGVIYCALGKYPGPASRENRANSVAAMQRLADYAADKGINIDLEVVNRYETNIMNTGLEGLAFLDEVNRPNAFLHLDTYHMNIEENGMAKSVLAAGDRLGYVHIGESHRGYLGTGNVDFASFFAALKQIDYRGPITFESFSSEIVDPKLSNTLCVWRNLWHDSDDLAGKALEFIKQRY

his_MetLRElong2 = biological target: T2, his_MetLRElong2 (Methylomonas sp. DH-1, UniProt A0A172U6X0, Y9I/Y37F/INS286TAIKTIELH/Y286L, form not given); experiment: X-ray crystal structure, […] Å; assay type: binding; conditions: 0.1 M HEPES pH 7.5, PEG 8000, 8% ethylene glycol
T2 construct: gene AYM39_05640; full length with Y9I, Y37F, Y286L and nine extra residues TAIKTIELH added after residue 286 at the C terminus; N-terminal His-tag from pET15b (kept), E. coli BL21(DE3), homodimer

MetLRE (MetLRE_his) [2] = biological target: T1, MetLRE (MetLRE_his); experiment: X-ray crystal structure, […] Å; assay type: binding; conditions: crystal soaked in 15% (w/v) D-fructose; catalytic site with Mn2+; second site: beta-D-fructopyranose on surface near C terminus of Mol-A
his_MetLRE = biological target: T3, his_MetLRE (Methylomonas sp. DH-1, UniProt A0A172U6X0); experiment: X-ray crystal structure, […] Å; assay type: binding; conditions: 0.1 M HEPES pH 7.5, PEG 8000, 8% ethylene glycol
T3 construct: gene AYM39_05640; full length 286 aa, N-terminal His-tag from pET15b (kept), E. coli BL21(DE3), homodimer
T3 sequence (A0A172U6X0 1-286): T1 sequence (A0A172U6X0 1-286)

MetLRE (MetLRE_his) [3] = biological target: T1, MetLRE (MetLRE_his); experiment: thermal shift assay (SYPRO Orange); assay type: binding; conditions: melting temperature, not a shift: reference with Mn alone Tm1_Mn 72.5 ± 0.03 °C; 4 mM D-allulose, 0.8 mM MnCl2, 40 mM Tris/HCl pH 7.6; two-step unfolding, first transition
Source text: thermal shift assay (SYPRO Orange) on MetLRE (MetLRE_his) | in the presence of Mn and D‐allulose (cyan line)

[4] = substrate: O=C(CO)[C@@H](O)[C@@H](O)CO; experiment: epimerization, product by HPLC; assay type: biochemical, Methylomonas sp. DH-1; conditions: 50 mM Tris/HCl pH 7.5, 1 mM MnCl2, 70 °C (conditions of the specificity assay)
[5] = biological target: the molecule itself; experiment: crystal structure; MetLRE_his crystals, alone and soaked with D-fructose, D-allulose or L-tagatose; reservoir 0.2 M MgCl2, 0.1 M Tris/HCl pH 8.5, 25% PEG3350, 293 K; two molecules in an asymmetric unit
[6] = biological target: the molecule itself; experiment: crystal structure; his_MetLRE (with D-allulose) and his_MetLRElong2 (with D-fructose); reservoir 0.1 M HEPES pH 7.5, 10% PEG 8000, 8% ethylene glycol; space group P1, six and eight molecules in an asymmetric unit; symmetry operation and PISA analysis

OCC1(O)OC[C@H](O)[C@@H](O)[C@H]1O (stereo partly drawn) [L-tagatose]
X-ray crystal structure, 1.70 Å (MetLRE (MetLRE_his) [1]; crystal soaked in 15% (w/v) L-tagatose, catalytic site of Mol-B with Mn2+, second site: alpha-L-tagatopyranose on surface of Mol-B): The bound L‐tagatose was found in the catalytic site of Mol‐B

OCC1(O)OC[C@H](O)[C@@H](O)[C@@H]1O (stereo partly drawn) [L-sorbose]
X-ray crystal structure, 1.70 Å (MetLRE (MetLRE_his) [1]; formed from soaked L-tagatose in crystal, catalytic site of Mol-A with Mn2+): L‐sorbose (C3 epimer of L‐tagatose) was bound in the catalytic site

OCC1(O)OC[C@@H](O)[C@@H](O)[C@@H]1O (stereo partly drawn) [D-fructose]
X-ray crystal structure, 1.58 Å (his_MetLRElong2): the crystal structure of his_MetLRElong2 in complex with D‐fructose was determined
X-ray crystal structure, 1.80 Å (MetLRE (MetLRE_his) [2]): MetLRE_his in complex with D‐fructose was crystallized in the orthorhombic space group

OCC1(O)OC[C@@H](O)[C@@H](O)[C@H]1O (stereo partly drawn) [D-allulose]
X-ray crystal structure, 2.05 Å (his_MetLRE): His_MetLRE in complex with D‐allulose was obtained in the triclinic space group P1
Tm1_MnA (MetLRE (MetLRE_his) [3]): 78.5 ± 0.1 °C

B1: MetLRE (MetLRE_his) (Methylomonas sp. DH-1) (protein)
chain: T1 sequence (A0A172U6X0 1-286)
Km [4]: 22.4 ± 3.4 mM
kcat [4]: 82.05 ± 5.77 s⁻¹

B2: C-terminal His-tagged L-ribulose 3-epimerase from Methylomonas sp. DH-1 (MetLRE_his) (enzyme, UniProt A0A172U6X0 1-286, looked up)
chain: T1 sequence (A0A172U6X0 1-286)
notes: L-ribulose 3-epimerase (putative sugar isomerase/epimerase) from Methylomonas sp; DH-1, NCBI WP_064020855.1, 286 a.a; synthesized gene amplified from the start codon to the last codon (Y286), then a linker beginning at Gly287 and the His tag; Linker and tag follow Y286: Gly287 and Ser288 are in the linker; also called putative sugar isomerase/epimerase; source: E. coli JM109 (pQE60, plasmid …)
stoichiometry N [5]: 2

B3: N-terminal His-tagged L-ribulose 3-epimerase from Methylomonas sp. DH-1 (his_MetLRE) (enzyme, UniProt A0A172U6X0 1-286, looked up)
chain: T1 sequence (A0A172U6X0 1-286)
notes: L-ribulose 3-epimerase from Methylomonas sp; DH-1, NCBI WP_064020855.1, 286 a.a; primers from the start codon to the stop codon; N-terminal tag and additional residues come from pET15b; source: E. coli BL21(DE3) (pET15b, plasmid pETMetLRE), purified (HisTrap HP); not shown: His tag, N-terminal, kept
stoichiometry N [6]: 2

B4: N-terminal His-tagged MetLRElong2 (his_MetLRE with nine additional residues TAIKTIELH at the C terminus and three mutations Y9I, Y37F, Y286L) (enzyme, Methylomonas sp. DH-1)
chain: MAFPKRLEIGGHALVWSGDWSAAGARKAIAGAARAGFDYIEIALLDPWQIDVALTKDLLQEYNLRAHASLGLSAATDVTSTDPAIVAKGDELLRKATDVLYALGGSELCGVIYCALGKYPGPASRENRANSVAAMQRLADYAADKGINIDLEVVNRYETNIMNTGLEGLAFLDEVNRPNAFLHLDTYHMNIEENGMAKSVLAAGDRLGYVHIGESHRGYLGTGNVDFASFFAALKQIDYRGPITFESFSSEIVDPKLSNTLCVWRNLWHDSDDLAGKALEFIKQRLTAIKTIELH
notes: L-ribulose 3-epimerase from Methylomonas sp; DH-1, NCBI WP_064020855.1, 286 a.a., with three mutations; nine additional residues at the C terminus, chosen on the tetramer form of AgDAE; source: E. coli BL21(DE3) (pET15b, plasmid pETMetLRElong2), purified (HisTrap HP); not shown: His tag, N-terminal, kept
stoichiometry N [6]: 2
